# Measured values reported in patent publication US7943338B2, “Autoimmune conditions and NADPH oxidase defects” (Arexis AB, priority 2002, dated 2011).
# “Also recorded” adds a separate entry of the source.
# How the values were obtained:
# [1] = Lymph node distribution of 14C-hexadecane after hexadecene at day -5; assay type: in vivo, Rat (Rattus norvegicus); details: hexadecene 0, 50, 100 or 200 μL day -5; 14C-hexadecane day 0; day 10
# Description: An experiment was performed to determine if oils compete for available space in the lymph nodes and if such a competition was the reason for the preventive effects of pre-treatment with hexadecene and undecane. At day −5, DA rats were injected with one of the following amounts of hexadecene: 0 μL, 50 μL, 100 μL, or 200 μL. At day 0, all rats were injected intradermally with 14C-hexadecane at the base of the tail. At day 10, the rats were sacrificed and the lymph nodes were collected and placed in PBS, homogenized, and frozen. 1 mL of the homogenate was then transferred to Ready Safe (Beckman) and analysed in a β-counter (Beckman).
# DA rats = experiment: Treatment of hexadecane-induced arthritis with hexadecene; assay type: in vivo, Rat (Rattus norvegicus)
# Description: Groups of DA rats were injected i.d. at the base of the tail as follows: • Hexadecane 200 μL day 0; • Hexadecene 200 μL day 0; • Hexadecene 200 μL day −5, Hexadecane 200 μL day 0; • Olive oil 200 μL day −5, Hexadecane 200 μL day 0; • Hexadecene 200 μL day +5, Hexadecane 200 μL day 0; and • Olive oil day 200 μL +5, Hexadecane 200 μL day 0.
# The rats were scored as indicated above. Olive oil was used as a control.
# [2] = in vivo; cited from earlier work
substance,measurement,setting,value
hexadecene,amount of hexadecane in draining lymph nodes,[1],not affected
same,arthritis-inducing capacity,"DA rats; 200 μL i.d. day 0 alone, FIG. 12, p<0.05 hexadecane vs hexadecene",does not
same,development of hexadecane induced arthritis,"DA rats; hexadecene 200 μL i.d. day -5 or day +5, hexadecane day 0",None of the rats treated with hexadecene developed arthritis; also recorded: None of the rats treated with hexadecene showed any symptoms of arthritis
same,difference in arthritis scores vs control rats,"DA rats; hexadecene day -5 and day +5, p<0.05",significant
same,arthritis induction,[2],do not
